Where “and” joins values, the source holds several entries; their conditions need not be identical. Equal values may be shown once. Read-outs that look alike come from different tables or passages of the source.
How the values were obtained:
[1] = test system: phosphorylation of Smad2/3; test: Western blot of TGF‐β1‐induced Smad signalling in fibroblasts; format: cell-based; conditions: TGF‐β1, 24 hours
Description: Samples of cells and mouse lung tissues were lysed in RIPA buffer with a protease and phosphatase inhibitors (Selleckchem). The protein concentrations in the cell lysate were measured by the Lowry method. Approximately 50 μg of total protein was separated by SDS‐PAGE and then transferred to polyvinylidene fluoride (PVDF) membranes (Amersham Bioscience). After the membranes incubation with the specific primary and secondary antibodies, the reactive bands were detected with enhanced chemiluminescent substrate to horseradish peroxidase.

LO2 cells = test: Cytotoxicity in normal human liver cell line; format: cell-based; conditions: 24 hours exposure
Description: The cell viability of YTH‐60 and Nintedanib treatment was performed by MTT and CCK8 assay. Briefly, the exponentially growing cells were seeded in 96‐well (2‐5 × 10^3 cells·well^−1) and cultured for 24 hours. The cells were treated with different concentrations of YTH‐60 (0, 0.625, 1.25, 2.5, 5, 10 µmol·L^−1), after treatment for 24, 48 and 72 hours, respectively, a volume of 20 μL of 5 mg·mL^−1 MTT solution or 10 μL CCK‐8 solution was added to each well and incubation for 2‐4 hours at 37°C. Finally, the 96‐well plates were read on Multiskan FC microplate spectrophotometer at 570 or 450 nm wavelength.

A549 cells = test: Wound healing assay; format: cell-based, human; conditions: A549, combined with TGF‐β1 vs TGF‐β1 alone
Description: A549 cells (1 × 10^6 well^−1) were grown on 6‐well plates in 2 mL 10% FBS DMEM medium. Making a scratch with a sterile 200 μL microtube tip after 24 hours and the scratched cells were washed gently with serum‐free DMEM. Then, TGF‐β1 or YTH‐60 added to their corresponding wells and cultured for 24 hours. Each picture was imaged at three different locations. ImageJ software was used to estimate the percentage of the original width by measuring the width of the scratches.

[2] = Pharmacokinetics study after IV and PO administration to SD rats; format: in vivo
Description: The appropriate amount of YTH‐60 was accurately weighed, added to the final volume of 5% DMSO, 40% PEG400 and 55% normal saline, and vortexed or ultrasonicated to fully mix. Then, 0.4 and 2 mg·mL^−1 of clarified dosing solution was used for intravenous administration and oral gavage administration. SD rats were transferred from the Experimental Animal Library (999 M‐017), Shanghai Xipuer‐Beikai Experimental Animal Co. Ltd. After oral, intravenous or intragastric administration, blood was collected by jugular vein or other suitable methods. Approximately 0.20 mL of each sample was collected, in the presence of heparin sodium as an anticoagulant. After the blood samples were collected, they were placed on ice and centrifuged to separate plasma within 2 hours (centrifugation conditions: centrifugal force 6800 g, 6 minutes, 2‐8°C). The collected plasma samples were stored at −80°C before analysis by LC‐MS/MS‐18. After analysis, the remaining plasma samples were stored at −80°C for a period of 1 month.

With `COc1cc(OC)c(Cl)c(-c2ccc3c(/C=C/c4ccc(N(C)C(=O)CN5CCN(C)CC5)cc4)n[nH]c3c2)c1Cl` [YTH‐60, (E)‐N‐(4‐(2‐(6‐(2,6‐dichloro‐3,5‐dimethoxyphenyl)‐1H‐indazol‐3‐yl)vinyl)phenyl)‐N‐methyl‐2‐(4‐methylpiperazin‐1‐yl)acetamide] the “TGF‐β1‐induced phosphorylation of Smad2/3 (in words)” value [1] was “significantly reduced this phosphorylation”, the “cytotoxicity, viability of LO2 cells (in words)” value (LO2 cells) was “inhibited the viability of LO2 cells less than Nintedanib” and the “cell migration (in words)” value (A549 cells) was “significantly inhibited cell migration”. The Individual plasma concentration ([2]; IV 2 mg/kg, 0.083 h, individual animals 101, 102, 103, 2 mg/kg) was 423.84 ng/mL and 362.43 ng/mL, the Individual plasma concentration ([2]; IV 2 mg/kg, 0.25 h, individual animals 101, 102, 103, 2 mg/kg) was 168.72 ng/mL and 204.54 ng/mL and the Individual plasma concentration ([2]; IV 2 mg/kg, 0.5 h, individual animals 101, 102, 103, 2 mg/kg) was 128.91 ng/mL and 163.29 ng/mL. For the same compound, the Individual plasma concentration ([2]; IV 2 mg/kg, 1 h, individual animals 101, 102, 103, 2 mg/kg) was 107.71 ng/mL and 131.39 ng/mL, the Individual plasma concentration ([2]; IV 2 mg/kg, 2 h, individual animals 101, 102, 103, 2 mg/kg) was 69.27 ng/mL and 80.59 ng/mL and the Individual plasma concentration ([2]; IV 2 mg/kg, 4 h, individual animals 101, 102, 103, 2 mg/kg) was 42.78 ng/mL and 48.71 ng/mL. For the same compound, the Individual plasma concentration ([2]; IV 2 mg/kg, 6 h, individual animals 101, 102, 103, 2 mg/kg) was 34.45 ng/mL and 41.43 ng/mL, the Individual plasma concentration ([2]; IV 2 mg/kg, 8 h, individual animals 101, 102, 103, 2 mg/kg) was 22.38 ng/mL and 32.19 ng/mL and the Individual plasma concentration ([2]; IV 2 mg/kg, 24 h, individual animals 101, 102, 103, 2 mg/kg) was 2.68 ng/mL and 3.51 ng/mL. The Individual plasma concentration ([2]; PO 20 mg/kg, 0.25 h, individual animals 201, 202, 203, 20 mg/kg) was 38.10 ng/mL and 22.94 ng/mL, the Individual plasma concentration ([2]; PO 20 mg/kg, 0.5 h, individual animals 201, 202, 203, 20 mg/kg) was 25.31 ng/mL and 35.39 ng/mL and the Individual plasma concentration ([2]; PO 20 mg/kg, 1 h, individual animals 201, 202, 203, 20 mg/kg) was 34.05 ng/mL and 26.26 ng/mL. For the same compound, the Individual plasma concentration ([2]; PO 20 mg/kg, 2 h, individual animals 201, 202, 203, 20 mg/kg) was 87.47 ng/mL and 35.35 ng/mL and 57.08 ng/mL, the Individual plasma concentration ([2]; PO 20 mg/kg, 4 h, individual animals 201, 202, 203, 20 mg/kg) was 83.13 ng/mL and 87.88 ng/mL and the Individual plasma concentration ([2]; PO 20 mg/kg, 6 h, individual animals 201, 202, 203, 20 mg/kg) was 85.16 ng/mL and 114.92 ng/mL. For the same compound, the Individual plasma concentration ([2]; PO 20 mg/kg, 8 h, individual animals 201, 202, 203, 20 mg/kg) was 79.77 ng/mL and 97.21 ng/mL, the Individual plasma concentration ([2]; PO 20 mg/kg, 24 h, individual animals 201, 202, 203, 20 mg/kg) was 14.36 ng/mL and 18.49 ng/mL and the concentration at 2 h ([2]; SD, rat, plasma, iv, 2 mg/kg, IV 2 mg/kg, 2 h, individual animals 101, 102, 103, read-out: Individual plasma concentration) was 68.3 ng/mL. It also gave a concentration at 2 h ([2]; SD, rat, plasma, iv, 2 mg/kg, IV 2 mg/kg, 2 h, read-out: Mean plasma concentration) of 72.7 ng/mL, a concentration at 4 h ([2]; SD, rat, plasma, iv, 2 mg/kg, IV 2 mg/kg, 4 h, individual animals 101, 102, 103, read-out: Individual plasma concentration) of 41.1 ng/mL and a concentration at 4 h ([2]; SD, rat, plasma, iv, 2 mg/kg, IV 2 mg/kg, 4 h, read-out: Mean plasma concentration) of 44.2 ng/mL. It also gave a concentration at 6 h ([2]; SD, rat, plasma, iv, 2 mg/kg, IV 2 mg/kg, 6 h, individual animals 101, 102, 103, read-out: Individual plasma concentration) of 36.8 ng/mL, a concentration at 6 h ([2]; SD, rat, plasma, iv, 2 mg/kg, IV 2 mg/kg, 6 h, read-out: Mean plasma concentration) of 37.6 ng/mL and a concentration at 8 h ([2]; SD, rat, plasma, iv, 2 mg/kg, IV 2 mg/kg, 8 h, individual animals 101, 102, 103, read-out: Individual plasma concentration) of 20.4 ng/mL. For the same compound, the AUC ([2]; SD, rat, plasma, iv, 2 mg/kg, SD rats, i.v. 2 mg·kg^−1, read-out: AUC0‐t) was 773 ± 99.4 ng·h/mL, the AUC ([2]; SD, rat, plasma, iv, 2 mg/kg, SD rats, i.v. 2 mg·kg^−1, read-out: AUC0‐∞) was 793 ± 104 ng·h/mL and the MRT ([2]; SD, rat, plasma, iv, 2 mg/kg, SD rats, i.v. 2 mg·kg^−1, read-out: MRT0‐t) was 4.5 ± 0.28 h. It also gave an MRT ([2]; SD, rat, plasma, iv, 2 mg/kg, SD rats, i.v. 2 mg·kg^−1, read-out: MRT0‐∞) of 5.16 ± 0.36 h, an AUC ([2]; SD, rat, plasma, iv, 2 mg·kg^−1, SD rats, after an IV dose, read-out: mean AUC(0‐t)) of 773 ng·h/mL and a concentration at 2 h ([2]; SD, rat, plasma, po, 20 mg/kg, PO 20 mg/kg, 2 h, read-out: Mean plasma concentration) of 60 ng/mL. The concentration at 4 h ([2]; SD, rat, plasma, po, 20 mg/kg, PO 20 mg/kg, 4 h, individual animals 201, 202, 203, read-out: Individual plasma concentration) was 84.7 ng/mL and the concentration at 4 h ([2]; SD, rat, plasma, po, 20 mg/kg, PO 20 mg/kg, 4 h, read-out: Mean plasma concentration) was 85.2 ng/mL.

Source: PMC8249783, “A novel multikinase inhibitor SKLB‐YTH‐60 ameliorates inflammation and fibrosis in bleomycin‐induced lung fibrosis mouse models” (Cell Proliferation, 2021)
